In US5442111A, “3,5-di-tetriary-4-butyl-4-hydroxyphenyloxy- or tioalkylene N-hydroxyamides, N-hydroxythioamides, N-hydroxyureas, and N-hydroxythioureas as 5-lipoxygenase inhibitors” (Warner-Lambert Company, priority 1991, dated 1995):

System: 5-lipoxygenase
Experiment: ARBL whole cell 5-lipoxygenase assay (LTB4 formation in RBL-1 cells stimulated with calcium ionophore A23187, RIA)
Assay type: cell-based
Conditions: @ 10^-6 (concentration unit not given); rat RBL-1 whole cells, A23187 5 μM, 10 min preincubation
Method: ARBL WHOLE CELL 5-LIPOXYGENASE ASSAY
The rat basophilic leukemia cell line (RBL-1) was obtained from the American Type Culture Collection (Rockville, Md.).
A radioimmunoassay (RIA) kit of LTB was obtained from Amersham (Arlington Heights, Ill.) and Seragen (Boston, Mass.), respectively.
RBL-1 cells are grown in suspension culture in Eagle's minimum essential medium supplemented with 12% fetal bovine serum at 37° C. in an incubator supplied with air-5% carbon dioxide. Cells are harvested by centrifugation. They are washed with cold phosphate buffered saline pH 7.4 (PBS; NaCl, 7.1 g; NaHPO, 1.15 g; KHPO, 0.2 g; and KCl, 0.2 g/l). Cells are finally suspended in PBS containing 1.0 mM calcium at a density of […] cells/ml. Cells are incubated with and without test agent (in DMSO) (1% DMSO is without effect on arachidonic acid metabolism) for ten minutes at room temperature. Calcium ionophore A23187 (5 μM) is added and cells are incubated for seven minutes at 37° C. The reaction is stopped by chilling the tubes on ice for ten minutes. Cells are separated by centrifugation and the supernatant is stored at -20°. Aliquots (100 μl) are analyzed for LTB using the radioimmunoassay kit as provided by the supplier.
The following table contains biochemical data obtained from this whole cell assay as a percentage of inhibition.

CNC(=S)N(O)C(C)CSc1cc(C(C)(C)C)c(O)c(C(C)(C)C)c1 (centres unmarked) [Example 1, N-[2-[[3,5-Bis(1,1-dimethylethyl)-4-hydroxyphenyl]thio]-1-methylethyl]-N-hydroxy-N'-methyl Thiourea]
ARBL @ 10^-6, % inhibition for LTB4: 100%

CC(CSc1cc(C(C)(C)C)c(O)c(C(C)(C)C)c1)N(O)C(N)=O (centres unmarked) [Example 2, N-[2-[[3,5-Bis(1,1-dimethylethyl)-4-hydroxyphenyl]thio]-1-methylethyl]-N-hydroxy Urea]
ARBL @ 10^-6, % inhibition for LTB4: 100%
